Measured values taken from paper PMC10253817, “Design, Pharmacological Characterization, and Molecular Docking of Minimalist Peptidomimetic Antagonists of α4β1 Integrin” (International Journal of Molecular Sciences, 2023).

Experiments:
α4β1 integrin [1] = biological target: T1, α4β1 integrin (Homo sapiens, UniProt P05556+P13612); experiment: LDV-FITC competitive binding on intact Jurkat E6.1 cells; conditions: intact Jurkat E6.1 cells vs. LDV-FITC; mean ± SD
T1 construct: Jurkat E6.1 cell line, which endogenously expresses α4β1 integrin; host or cells: Jurkat E6.1
Protocol: The assays were performed as previously described with the following modifications. Jurkat E6.1 cells were resuspended (50,000 cells/sample) in 0.1% BSA in a HEPES buffer (NaCl 110 mM; KCl 10 mM; Glucose 10 mM; MgCl2 1 mM; CaCl2 1.5 mM; HEPES 30 mM; pH 7.4) and pre-incubated with different concentrations (10^−11–10^−5 M) of compounds for 20–30 min at RT. Then, LDV-FITC (5 µM) was added to the cells, and they were incubated in the dark for an additional 30 min at RT. At the end of the incubation with LDV-FITC, cells were washed with 0.1% BSA in a HEPES buffer. The FITC fluorescence intensity was measured using an EnSpire Multimode Plate Reader (PerkinElmer, Waltham, MA, USA). The data were plotted as LDV-FITC specific bindings versus the concentration of the competitor, and the data were fitted to a one-site competition equation; the equilibrium dissociation constant Ki was calculated from the IC50 using the Cheng–Prusoff equation.

αMβ2 integrin = biological target: T2, αMβ2 integrin (Homo sapiens, UniProt P05107+P11215); experiment: αMβ2 integrin-mediated HL60 cell adhesion to Fg; type: cell-based; conditions: HL60 cell adhesion to Fg (10 μg/mL), mean ± SD; for IC50: antagonists
T2 construct: HL60 cells, mainly expressing the leukocyte integrin αMβ2; host or cells: HL60 (PMA-treated)
Protocol: To this purpose, the ability of the best peptidomimetics to modulate cell adhesion mediated by integrins other than α4β1 was evaluated in HL60 cells, mainly expressing the leukocyte integrin αMβ2, and on K562 cells, mainly expressing α5β1, which shares a β1 subunit with the heterodimer α4β1. […] In contrast, 13 was a moderate promoter of cell adhesion mediated by αMβ2 integrin, behaving as an agonist. Regarding α5β1 integrin, none of the peptidomimetics employed were able to modulate K562 cell adhesion, thus being shown to be completely ineffective toward α5β1 integrin. The reference compound DS-70 was ineffective toward both αMβ2 and α5β1 integrins under the same experimental conditions (Table 3).
The assays were performed as previously described. Briefly, regarding adhesion assays on Jurkat E6.1 or HL-60 cells, black 96-well plates (Corning Costar) were coated overnight at 4 °C with FN or Fg (10 μg/mL) or VCAM-1 (2 μg/mL) in order to investigate α4β1 integrin-mediated cell adhesion. To avoid any kind of unspecific binding, plates were incubated with 100 μL/well of blocking solution (1% BSA in HBSS) for 30 min at 37 °C. Cells were counted, stained with the CellTracker green CMFDA (12.5 μM, 30 min at 37 °C, Life Technologies Italia, Milan, Italy) and after three washes, were preincubated with increasing concentrations of new compounds (10^−10–10^−4 M) or with the vehicle (methanol) for 30 min at 37 °C.
Then, cells were plated (500,000/well) on coated wells and incubated for 30 min at 37 °C. Afterwards nonadherent cells were removed via washing with a blocking solution, and the remaining adhered cells were lysed with 0.5% Triton X-100 in PBS (30 min at 4 °C). Green fluorescence was measured (Ex485 nm/Em535 nm) using an EnSpire Multimode Plate Reader (PerkinElmer, Waltham, MA, USA).
In both types of adhesion assay, the number of adherent cells was determined via comparison with a standard curve made in the same plate. Experiments were carried out in quadruplicate and repeated at least three times. Data analysis and EC50 or IC50 values were calculated using GraphPad Prism 9.5.1 (GraphPad Software, San Diego, CA, USA).
Cell culture. Jurkat E6.1 (expressing both α4β1 and αLβ2 integrin), K562 (expressing α5β1 integrin) and HL60 (expressing α Mβ2 integrin) cell lines were purchased from ATCC (Rockville, MD, USA); these cells were routinely cultured in RPMI-1640 (Life Technologies) supplemented with 1% glutamine and 10% fetal bovine serum (FBS). Cells were grown at 37 °C under 5% CO 2 humidified atmosphere. […]

α4β1 integrin [2] = biological target: T1, α4β1 integrin; experiment: HUTS-21 monoclonal antibody binding (α4β1 integrin conformation), flow cytometry; type: cell-based; conditions: Jurkat E6.1 cells; compounds 1–100 nM; FN 10 µg/mL; versus vehicle
Excerpt: Integrin functions are regulated by a number of conformational changes in the protein itself. […] Conformational changes can be evaluated by using conformationally sensitive antibodies which specifically recognize epitopes exposed only in a defined structural conformation. To better depict peptidomimetics–α4β1 integrin interactions, we employed PE-conjugated HUTS-21 mAb that recognizes an epitope mapped to the hybrid domain of the β1 subunit.
Conversely, antagonists 3, 8, and 13, although binding to α4β1 integrin as previously shown, were not able to induce any conformational rearrangement, showing very low binding of HUTS-21 mAb.
Flow cytometry analysis was performed as previously described, with the following modifications. Jurkat E6.1 cells were resuspended in 1% BSA in HBSS (50,000 cells/sample); then, FN (10 μg/mL) and two concentrations of the best peptidomimetics (100–1 nM) were added to the cells for 30 min. Thereafter, phycoerythrin (PE)-conjugated, conformational-sensitive HUTS-21 mAb (PE mouse anti-human CD29 antibody, Becton Dickinson Italia, Milan, Italy) (20 μL/sample) was added for 45 min at room temperature; after two washes, Jurkat E6.1 cells were suspended in PBS, and 10,000 cells/sample were acquired in a Guava®EasyCyte Flow Cytometer. The data are presented as the mean fluorescence intensity (MFI). Data were normalized with the relative fluorescence for nonspecific binding evaluated by exposing the cells to an isotype control mAb set to 0.

T2 sequence (P05107 23-769, other chains not shown): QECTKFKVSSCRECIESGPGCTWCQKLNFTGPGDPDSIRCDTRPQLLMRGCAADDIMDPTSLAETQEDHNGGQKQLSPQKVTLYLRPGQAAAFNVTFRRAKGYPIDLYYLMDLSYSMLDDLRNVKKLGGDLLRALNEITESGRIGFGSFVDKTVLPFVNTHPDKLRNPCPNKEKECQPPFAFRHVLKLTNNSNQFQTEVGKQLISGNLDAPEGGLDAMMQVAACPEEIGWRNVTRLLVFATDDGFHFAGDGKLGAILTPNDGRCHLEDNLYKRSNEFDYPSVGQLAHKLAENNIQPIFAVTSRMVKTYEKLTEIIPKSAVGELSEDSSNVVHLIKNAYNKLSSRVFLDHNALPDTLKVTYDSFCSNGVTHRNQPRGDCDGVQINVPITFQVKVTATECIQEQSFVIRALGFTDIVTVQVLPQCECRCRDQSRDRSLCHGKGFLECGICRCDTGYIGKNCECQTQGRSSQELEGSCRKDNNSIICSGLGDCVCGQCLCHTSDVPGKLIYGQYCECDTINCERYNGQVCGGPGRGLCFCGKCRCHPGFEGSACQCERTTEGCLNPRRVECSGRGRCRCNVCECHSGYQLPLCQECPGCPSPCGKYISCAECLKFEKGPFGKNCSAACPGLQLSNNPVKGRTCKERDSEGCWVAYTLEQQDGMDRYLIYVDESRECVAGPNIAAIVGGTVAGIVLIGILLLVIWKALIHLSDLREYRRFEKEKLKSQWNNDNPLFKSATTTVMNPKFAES
T1 sequence (P13612 34-1032): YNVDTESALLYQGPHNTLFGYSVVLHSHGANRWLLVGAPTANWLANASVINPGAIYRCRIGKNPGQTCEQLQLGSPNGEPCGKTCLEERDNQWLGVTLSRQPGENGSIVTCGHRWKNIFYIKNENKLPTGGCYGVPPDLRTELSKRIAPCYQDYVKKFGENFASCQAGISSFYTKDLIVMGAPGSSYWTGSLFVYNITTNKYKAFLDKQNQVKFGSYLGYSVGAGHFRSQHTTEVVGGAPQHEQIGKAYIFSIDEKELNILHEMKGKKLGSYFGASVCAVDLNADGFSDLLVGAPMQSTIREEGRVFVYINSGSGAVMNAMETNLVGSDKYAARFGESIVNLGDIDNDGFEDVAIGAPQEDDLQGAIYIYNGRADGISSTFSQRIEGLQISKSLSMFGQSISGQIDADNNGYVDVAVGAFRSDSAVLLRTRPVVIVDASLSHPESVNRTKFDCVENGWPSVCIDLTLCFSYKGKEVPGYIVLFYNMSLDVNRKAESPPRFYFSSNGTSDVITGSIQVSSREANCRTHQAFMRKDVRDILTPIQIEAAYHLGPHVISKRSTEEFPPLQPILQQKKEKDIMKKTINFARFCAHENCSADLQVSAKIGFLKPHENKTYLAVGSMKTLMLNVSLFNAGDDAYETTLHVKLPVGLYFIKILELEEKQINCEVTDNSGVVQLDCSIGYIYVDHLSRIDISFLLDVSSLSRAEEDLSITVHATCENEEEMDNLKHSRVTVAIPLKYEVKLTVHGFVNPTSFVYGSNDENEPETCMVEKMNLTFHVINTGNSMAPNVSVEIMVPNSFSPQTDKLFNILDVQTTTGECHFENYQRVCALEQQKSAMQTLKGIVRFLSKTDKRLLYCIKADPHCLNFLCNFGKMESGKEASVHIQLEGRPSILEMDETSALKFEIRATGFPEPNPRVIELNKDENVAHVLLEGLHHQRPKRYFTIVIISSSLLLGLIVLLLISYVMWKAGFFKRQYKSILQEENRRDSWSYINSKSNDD
T1 sequence (P05556 21-798): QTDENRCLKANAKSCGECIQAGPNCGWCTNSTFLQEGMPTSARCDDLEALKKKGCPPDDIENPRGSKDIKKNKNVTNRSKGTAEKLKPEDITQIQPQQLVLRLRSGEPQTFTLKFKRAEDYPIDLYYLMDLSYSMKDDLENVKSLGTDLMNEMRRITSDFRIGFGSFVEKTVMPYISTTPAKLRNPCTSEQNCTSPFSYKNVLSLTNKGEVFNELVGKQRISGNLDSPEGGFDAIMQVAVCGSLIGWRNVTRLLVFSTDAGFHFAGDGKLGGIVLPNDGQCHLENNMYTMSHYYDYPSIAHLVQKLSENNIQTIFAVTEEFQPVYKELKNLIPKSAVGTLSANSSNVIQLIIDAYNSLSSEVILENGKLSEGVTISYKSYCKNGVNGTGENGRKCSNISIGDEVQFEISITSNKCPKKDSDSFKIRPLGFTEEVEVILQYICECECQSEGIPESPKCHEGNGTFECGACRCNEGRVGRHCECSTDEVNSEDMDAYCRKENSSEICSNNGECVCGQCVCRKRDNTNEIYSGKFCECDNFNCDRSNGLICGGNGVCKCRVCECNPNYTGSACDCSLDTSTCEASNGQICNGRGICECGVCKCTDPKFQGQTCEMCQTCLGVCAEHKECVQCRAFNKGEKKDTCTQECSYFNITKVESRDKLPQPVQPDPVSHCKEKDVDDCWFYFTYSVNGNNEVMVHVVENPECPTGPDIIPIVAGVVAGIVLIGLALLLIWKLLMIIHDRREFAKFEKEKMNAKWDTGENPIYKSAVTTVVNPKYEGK

| Ki (α4β1 integrin [1]) | IC50 (αMβ2 integrin) | EC50 (αMβ2 integrin; agonist = increased number of adherent cells) | Structure (SMILES) | binding of HUTS-21 mAb (MFI) (α4β1 integrin [2]) |
| --- | --- | --- | --- | --- |
| 1.3 ± 0.7 nM | 76 nM |  | CC(=O)N[C@@H](CNC(=O)Cc1ccc(NC(=O)Nc2ccccc2C)cc1)C(=O)NCC(=O)O [compound 3] | not able to increase the binding of HUTS-21 mAb |
| 1.9 ± 0.8 nM | > 5000 nM |  | CCCNC(=O)[C@@H](CC(=O)NCC(=O)O)NC(=O)Cc1ccc(NC(=O)Nc2ccccc2C)cc1 [compound 8] | not able to increase the binding of HUTS-21 mAb |
| 16.7 ± 5.2 nM |  | 285 nM | Cc1ccccc1NC(=O)Nc1ccc(CNC(=O)C[C@@H](C)NC(=O)CC(=O)O)cc1 [compound 13] | not able to increase the binding of HUTS-21 mAb |
